Results as given in paper PMC9501633, “Synthesis, Characterisation and Mechanism of Action of Anticancer 3-Fluoroazetidin-2-ones” (Pharmaceuticals, 2022).

Legend:
Assay in all cases: AlamarBlue cell viability assay
Format in all cases: cell-based
[1] = system: Hs578T cells; details: Homo sapiens, Hs-578T
Protocol: (§1) The potent 3-fluoro-β-lactam compound 33 synthesised was also evaluated in the triple-negative MDA-MB-231 cell line which lacks expression of the estrogen and progesterone receptors (ER/PR) and the HER2 receptor. […]. Compound 32 was also evaluated in the triple-negative breast cancer cell line Hs578T and its isogenic subclone Hs578T(i)8 (Figure 4C). Hs578Ts(i)8 cells have 2.5-fold more migratory capacity and 3-fold more invasive capacity through the extracellular matrix than the parental cell line (Hs578T) and have 30% more CD44+/CD24-/low cells and in vivo proliferation. […]. The human breast carcinoma cell lines MCF-7 and MDA-MB-231 were purchased from the European Collection of Animal Cell Cultures (ECACC, Salisbury, UK). The SW-480 cells were a kind gift from Dr. Brian Flood, School of Biochemistry and Immunology, Trinity College Dublin. The human breast tumour cell line MCF-7 was cultured in Eagles minimum essential medium with 10% foetal bovine serum, 2 mM L-glutamine and 100 μg/mL penicillin/streptomycin. The medium was supplemented with 1% non-essential amino acids. The human breast tumour cell line MDA-MB-231 cells were maintained in Dulbecco’s modified Eagle’s medium (DMEM) with the addition of penicillin/streptomycin (100 µg/mL), 10% (v/v) foetal bovine serum and 2 mM L-glutamine (complete medium). Breast cancer cell line Hs578T and its isogenic subclone Hs578T(i)8 were a kind gift from Dr. Susan McDonnell, School of Chemical and Bioprocess Engineering, University College Dublin. SW-480 cells, triple-negative breast cancer Hs578T cells and invasive variant Hs578T8i cells were cultured in DMEM with GlutaMAX-I, with the same supplement in the absence of non-essential amino acids. HEK-293T cells (normal epithelial embryonic kidney cells) were cultured in DMEM with GlutaMAX-I in the absence of non-essential amino acids. The SW-480 cells were cultured in DMEM with GlutaMAX-I, with the same supplement in the absence of non-essential amino acids. All media contained 100 U/mL penicillin and 100 μg/mL streptomycin. The cells were seeded into pre-warmed complete medium (10 × 10^4 cells/mL) and maintained at a cell density of 2–19 × 10^5 cells /mL by the addition of fresh media. The cell number was monitored using a haemocytometer. Cells were maintained at 37 °C in 5% CO2 in a humidified incubator. […]
(§2) Figure 4 Antiproliferative activity of 3-fluoro β-lactams on MCF-7, MDA-MB-231, Hs578T and Hs578T isogenic subclone Hs578T(i)8 breast cancer cells and non-tumourigenic HEK-293T cells. […] Cell viability was expressed as a percentage of vehicle control (ethanol 1% (v/v))-treated cells. […] Cell viability was expressed as a percentage of vehicle control (ethanol 1% (v/v))-treated cells and was measured by AlamarBlue assay (average of three independent experiments). […]

[2] = system: Hs578Ts(i)8 cells
Protocol: as §1, §2

[3] = system: MCF-7 human breast cancer cells; details: Homo sapiens, MCF7, 72 h
Protocol: The antiproliferative potential of the synthesised 3-fluoro β-lactams 26–35 and 3,3-difluoro β-lactams 36–45 was evaluated in MCF-7 human breast cancer cells using the AlamarBlue assay, with CA-4 as reference compound (Figure 3). […] The results for the preliminary in vitro antiproliferative screen for 3-fluoro β-lactam compounds (26–29), which contain different substituents at the para position in the B ring, are presented in Figure 3A.
Cells were seeded at a density of 5 × 10^3 cells/well (MCF-7 and MDA-MB-231) and 1 × 10^4 cells/well (HEK-293T) in 96-well plates (200 μL per well). After 24 h, cells were then treated with medium alone, with vehicle (1% ethanol (v/v)) or with CA-4 or β-lactam compounds at 1 μM and 10 μM concentrations. […] Cell proliferation for MCF-7 cells was analysed with the AlamarBlue assay (Invitrogen Corp.) as previously described by us. After 72 h, AlamarBlue (10% (v/v)) was added to each well, and plates were incubated for 3–5 h at 37 °C in the dark. Fluorescence results were obtained with a 96-well fluorimeter with excitation at 530 nm and emission at 590 nm with results recorded as percentage viability relative to vehicle control (100%). Dose–response curves were obtained and IC50 values (concentration of drug resulting in 50% reduction in cell survival) were calculated using Prism (GraphPad Software, Inc., La Jolla, CA, USA).
Figure 3 Preliminary cell viability data for 3-fluoro and 3,3-difluoro β-lactam compounds. (A) 3-Fluoro β-lactam compounds containing different para-substituent ring B 26–29; 3-fluoro β-lactam compounds containing different meta-substituent ring B 30, 32–35; (B) 3-difluoro β-lactam compounds containing different para-substituent ring B 36–39; 3-difluoro β-lactam compounds containing different meta-substituent ring B 40, 42–45 in MCF-7 breast cancer cells. Cell proliferation of MCF-7 cells was determined with an AlamarBlue assay (seeding density […] for 96-well plates). Compound concentrations of either 10 μM or 1 μM for 72 h were used to treat the cells with control wells containing vehicle ethanol (1% v/v) and CA-4 (10 μM and 1 μM). The mean value for three experiments is shown with the ± S.E.M. for three independent experiments.

IC50 ([3]; MCF-7, 72 h): 75 nM
Compound: COc1ccc(C2C(F)C(=O)N2c2cc(OC)c(OC)c(OC)c2)cc1O (stereo not shown) [Compound 32, 3-Fluoro-4-(3-hydroxy-4-methoxyphenyl)-1-(3,4,5-trimethoxyphenyl)azetidin-2-one]
IC50 [1]: 33 nM
IC50 [2]: 65 nM
viability at 1 µM ([3]; MCF-7, 1 μM, 72 h, read-out: viable cells remaining): 30%
